Assay results published in patent publication US11578055B2, “Triazacyclododecansulfonamide (“TCD”)-based protein secretion inhibitors” (KEZAR LIFE SCIENCES, priority 2018, dated 2023).

Experiments:
[1] = In Vitro Microsome Stability Assay (monkey); type: in vitro ADME; settings: monkey liver microsomes, 30 min w/ NADPH
How it was run: (§1)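 The value reported is the percentage of parent left after 30 min, calculated from analyte/IS peak-area ratios relative to time zero by LC-MS/MS. Incubations ran at 37° C in 0.1 M potassium phosphate with NADPH and microsomes (stock 20 mg/mL), with compound added from a 0.25 mM DMSO stock. Acetonitrile containing IS stopped the reactions.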

[2] = In Vitro Microsome Stability Assay (human); type: in vitro ADME; settings: human liver microsomes, 30 min w/ NADPH
How it was run: as §1

[3] = test system: full length TNFα (amino acids 1-233) fused to Gaussia Luciferase; assay: Dox Induced TNFα-FL-Gluc Assay; type: cell-based; settings: 24 hr, Dox inducible, 293FRT/TO cells; read-out: 24 hr Dox Inducible TNFaFLGluc 293FRT/TO: Mean IC50
How it was run: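 Compounds diluted in DMSO/medium with doxycycline were incubated at 37° C, 5% CO2 with 293 T-REx cells stably carrying a Tet-regulated TNFα(1-233)-Gaussia luciferase construct. Data for structures drawn without stereochemistry refer to stereoisomer mixtures.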

[4] = test system: multiple myeloma cell line NCl-H929; assay: H929 Cell Viability Assay; type: cell-based, human; settings: Homo sapiens, NCI-H929, 48 h, H929, Celltiter-Glo
How it was run: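 Viability was determined by CellTiter-Glo luminescence after a 48 h, 37 °C exposure of NCI-H929 cells to serial compound dilutions in medium containing 10% FBS. Where stereochemistry is not shown, values refer to a mix of stereoisomers.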

[5] = test system: full length IL-2 (amino acids 1-153) fused to Gaussia Luciferase; assay: Dox Induced IL2-FL-Gluc Assay; type: cell-based; settings: 24 hr, Dox inducible, 293FRT/TO cells; read-out: 24 hr Dox Inducible IL2FLGluc 293FRT/TO: Mean IC50
How it was run: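 Compounds in DMSO/media with doxycycline were added to cells plated the previous day and incubated at 37° C, 5% CO2. Cells: stable Flp-In 293 T-REx line, Dox-regulated expression of IL-2 (aa 1-153) fused at its C-terminus to Gaussia luciferase.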

[6] = test system: multiple myeloma cell line U266B1; assay: U266 Cell Viability Assay; type: cell-based, human; settings: Homo sapiens, U-266; 48 hr, U266, Celltiter-Glo
How it was run: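 Viability was measured by CellTiter-Glo luminescence after 48 h compound exposure at 37° C, 5% CO2. The cells were U266B1 multiple myeloma cells grown in RPMI 1640 plus 10% FBS. Where stereochemistry is not shown, values apply to the stereoisomer mixture.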

[7] = In Vitro Microsome Stability Assay (mouse); type: in vitro ADME; settings: mouse liver microsomes, 30 min w/ NADPH
How it was run: as §1

[8] = In Vitro Microsome Stability Assay (rat); type: in vitro ADME; settings: rat liver microsomes, 30 min w/ NADPH
How it was run: as §1

[9] = test system: PD1 signal sequence plus 10 amino acids fused to Gaussia Luciferase (PD1-ss+10aa/Gaussia Luciferase); assay: Dox Induced PD1-ss-Gluc Assay; type: cell-based; settings: 24 hr, Dox inducible, 293FRT/TO cells; read-out: 24 hr Dox Inducible PD1ssGluc 293FRT/TO: Mean IC50
How it was run: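 Compound dilutions in DMSO/media containing doxycycline were applied to a stable, inducible 293 T-REx line carrying the luciferase fusion, then incubated at 37 °C, 5% CO2. Where stereochemistry is not drawn, values relate to isomer mixtures.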

Row | SMILES | Liver Microsome Stability-% Left after 30 min w/ NADPH (%) Monkey [1] [%] | Liver Microsome Stability-% Left after 30 min w/ NADPH (%) Human [2] [%] | IC50 [3] [nM] | EC50 [4] [nM] | IC50 [5] [nM] | EC50 [6] [µM] | Liver Microsome Stability-% Left after 30 min w/ NADPH (%) Mouse [7] [%] | Liver Microsome Stability-% Left after 30 min w/ NADPH (%) Rat [8] [%] | IC50 [9] [nM]
1 | C[C@H]1CN(S(=O)(=O)c2ccc(N(C)C)cc2)CCCN(CCC2CCCCC2)CCCN(S(=O)(=O)N2CCc3cc(Cl)ccc3C2)C1 [A134, 4-{[(3S)-5-[(6-chloro-1,2,3,4-tetrahydroisoquinolin-2-yl)sulfonyl]-9-(2-cyclohexylethyl)-3-methyl-1,5,9-triazacyclododecan-1-yl]sulfonyl}-N,N-dimethylaniline] | 9.76 | 31.9 | 309 | 541 | 27.3 | > 25 | 27.9 | 41.3 | 11
2 | C[C@H]1CN(S(=O)(=O)c2ccc(N(C)C)cc2)CCCN(CC2=CCCCC2)CCCN(S(=O)(=O)N2CCc3cc(Cl)ccc3C2)C1 [A135, 4-{[(3S)-5-[(6-chloro-1,2,3,4-tetrahydroisoquinolin-2-yl)sulfonyl]-9-[(cyclohex-1-en-1-yl)methyl]-3-methyl-1,5,9-triazacyclododecan-1-yl]sulfonyl}-N,N-dimethylaniline] | 39.2 | 9.36 | 625 | 1240 | 48.6 | > 25 | 26.1 | 56.3 | 21.6
3 | CCc1ccc2c(c1)CCN(S(=O)(=O)N1CCCN(CC3CCCCC3)CCCN(S(=O)(=O)c3ccc(N(C)C)cc3)C[C@H](C)C1)C2 [A136, 4-{[(3S)-9-(cyclohexylmethyl)-5-[(6-ethyl-1,2,3,4-tetrahydroisoquinolin-2-yl)sulfonyl]-3-methyl-1,5,9-triazacyclododecan-1-yl]sulfonyl}-N,N-dimethylaniline] | 23.2 | 65.3 | 544 | 1730 | 101 | > 25 | 14.3 | 26.6 | 26.5
4 | COc1cccc2c1CCN(S(=O)(=O)N1CCCN(CC3CCCCC3)CCCN(S(=O)(=O)c3ccc(N(C)C)cc3)C[C@H](C)C1)C2 [A138, 4-{[(3S)-9-(cyclohexylmethyl)-5-[(5-methoxy-1,2,3,4-tetrahydroisoquinolin-2-yl)sulfonyl]-3-methyl-1,5,9-triazacyclododecan-1-yl]sulfonyl}-N,N-dimethylaniline] | 12.5 | 8.84 | 947 | 2400 | 156 | > 25 | 13.2 | 17.1 | 73.9
5 | COCCN1CCCN(S(=O)(=O)c2ccc(N(C)C)cc2)C[C@H](C)CN(S(=O)(=O)N2CCc3cc(Cl)ccc3C2)CCC1 [A140, 4-{[(3S)-5-[(6-chloro-1,2,3,4-tetrahydroisoquinolin-2-yl)sulfonyl]-9-(2-methoxyethyl)-3-methyl-1,5,9-triazacyclododecan-1-yl]sulfonyl}-N,N-dimethylaniline] | 1.56 | 0.41 | 3010 | > 25000 | 808 | > 25 | 3.68 | 0.56 | 492
6 | CC(C)N1CCCN(S(=O)(=O)c2ccc(N(C)C)cc2)C[C@H](C)CN(S(=O)(=O)N2CCc3cc(Cl)ccc3C2)CCC1 [A141, 4-{[(3S)-5-[(6-chloro-1,2,3,4-tetrahydroisoquinolin-2-yl)sulfonyl]-3-methyl-9-(propan-2-yl)-1,5,9-triazacyclododecan-1-yl]sulfonyl}-N,N-dimethylaniline] | 0.66 | 0.26 | 4240 | 9110 | 863 | > 25 | 0.48 | 1.14 | 431
7 | C[C@H]1CN(S(=O)(=O)c2ccc(N(C)C)cc2)CCCN(CC2=CCCC2)CCCN(S(=O)(=O)N2CCc3cc(Cl)ccc3C2)C1 [A142] | 3.89 | 11.8 | 741 | 1450 | 67 | > 25 | 16 | 22.6 | 38.2
8 | C[C@H]1CCN(S(=O)(=O)c2ccc(N(C)C)cc2)CCCN(CC2CCCCC2)CCCN1S(=O)(=O)N1CCc2cc(Cl)ccc2C1 [A147, 4-{[(4 S)-5-[(6-chloro-1,2,3,4-tetrahydroisoquinolin-2-yl)sulfonyl]-9-(cyclohexylmethyl)-4-methyl-1,5,9-triazacyclododecan-1-yl]sulfonyl}-N,N-dimethylaniline] | 0.99 | 2.76 | > 25000 | > 25000 | > 25000 | > 25 | 0.74 | 1.16 | 4120
9 | C[C@@H]1CCN(S(=O)(=O)c2ccc(N(C)C)cc2)CCCN(CC2CCCCC2)CCCN1S(=O)(=O)N1CCc2cc(Cl)ccc2C1 [A148, 4-{[(4 R)-5-[(6-chloro-1,2,3,4-tetrahydroisoquinolin-2-yl)sulfonyl]-9-(cyclohexylmethyl)-4-methyl-1,5,9-triazacyclododecan-1-yl]sulfonyl}-N,N-dimethylaniline] | 0.67 | 0.52 | > 25000 | > 25000 | 1120 | > 25 | 1.59 | 1.29 | 926
10 | C[C@@H]1CCN(S(=O)(=O)N2CCc3cc(Cl)ccc3C2)CCCN(CC2CCCCC2)CCCN1S(=O)(=O)c1ccc(N(C)C)cc1 [A149, 4-{[(2 R)-5-[(6-chloro-1,2,3,4-tetrahydroisoquinolin-2-yl)sulfonyl]-9-(cyclohexylmethyl)-2-methyl-1,5,9-triazacyclododecan-1-yl]sulfonyl}-N,N-dimethylaniline] | 0.96 | 0.44 | > 25000 | > 25000 | > 25000 | > 25 | 0.83 | 0.47 | > 25000
11 | C[C@H]1CCN(S(=O)(=O)N2CCc3cc(Cl)ccc3C2)CCCN(CC2CCCCC2)CCCN1S(=O)(=O)c1ccc(N(C)C)cc1 [A150, 4-{[(2 S)-5-[(6-chloro-1,2,3,4-tetrahydroisoquinolin-2-yl)sulfonyl]-9-(cyclohexylmethyl)-2-methyl-1,5,9-triazacyclododecan-1-yl]sulfonyl}-N,N-dimethylaniline] | 2.2 | 4.6 | 468 | 2000 | 41.3 | > 25 | 1.38 | 2.02 | 30.3
12 | CC(C)CN1CCCN(S(=O)(=O)c2ccc(N(C)C)cc2)C[C@H](C)CN(S(=O)(=O)N2CCc3cc(Cl)ccc3C2)CCC1 [A152] | 3.22 | 3.69 | 1030 | 2170 | 174 | > 25 | 5.06 | 3.6 | 81.5
